Source: paper PMC12254266, “Multicolored sequential resonance energy transfer for detection of simultaneous ligand binding at G protein-coupled receptors” (Nature Communications, 2025)
Several values for one entry are separate records, joined by “and”; a condition that tells them apart may be missing. Equal values may be shown once.

Biological target: FFA1 (Homo sapiens, UniProt O14842)
Assay: Ca2+ mobilisation (Fura2) in Flp-In T-REx 293 cells expressing Nluc-FFA1, FFA1-Nluc or untagged FFA1
Format: cell-based
Parameters: expressed in transfected cells
Conditions: for pEC50: Ca2+ data, mean±SEM; for pEC50 / EMax: NR = No response; for EMax: percentage of response to 10 μM T360; for Ca2+ Response as a % of T360 Response: single technical replicates
Experimental: Nluc-FFA1, FFA1-Nluc or untagged FFA1 Flp-In T-REx 293 cells were plated at 50,000 cells per well in poly-D-lysine coated black clear bottom 96-well plates. Cells were then cultured for 24 h until reaching confluency before culture medium was replaced with medium containing 100 ng/mL of doxycycline to induce receptor expression. Cells were cultured for a further 24 h before the assay. On the day of the assay culture medium was removed and replaced with medium containing 3 μM Fura2-AM Ca^2+ dye. […] Fura2 fluorescent emission at 520 nm following excitation with each of 340 and 380 nm was measured in regular intervals both before and after adding test compounds for a total of 90 s per well. Calcium responses were determined by taking the peak 340/380 ratio after first subtracting the ratios obtained prior to addition of test compound.

Sequence of FFA1 (O14842 whole entry): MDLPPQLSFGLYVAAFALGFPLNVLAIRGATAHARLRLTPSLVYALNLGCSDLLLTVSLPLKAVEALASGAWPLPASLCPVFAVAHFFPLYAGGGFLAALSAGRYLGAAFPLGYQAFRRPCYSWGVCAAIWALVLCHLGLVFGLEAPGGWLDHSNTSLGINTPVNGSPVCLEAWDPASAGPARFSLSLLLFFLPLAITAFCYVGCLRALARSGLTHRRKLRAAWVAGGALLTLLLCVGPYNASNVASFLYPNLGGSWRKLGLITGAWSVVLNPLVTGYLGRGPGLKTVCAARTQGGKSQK

Structure (SMILES)	pEC50	EMax [%]	further results
COc1ccc(C(=O)N(CC(C)(C)CNC(=O)OC(C)(C)C)c2ccccc2)c(N2CCC(COc3cccc(C(CC(=O)O)C4CC4)c3)CC2)c1.O=C(O)C(F)(F)F (stereo not shown) [TUG-2467]	6.78±0.02	124±9	
COc1ccc(C(=O)N(CC(C)(C)C)c2cccc(C)n2)c(N2CCC(COc3cccc(C(CC(=O)NCCCNc4ccc([N+](=O)[O-])c5nonc45)C4CC4)c3)CC2)c1.O=C(O)C(F)(F)F (stereo not shown) [TUG-2598]			activity in Ca2+ assays (in words): loss of activity; Ca2+ Response as a % of T360 Response (log[Ligand] -5): 7.1012% and 15.2717% and 1.6246% and 2.7551% and 3.0159% and 6.2735% and 0.8241% and 1.6284% and -0.5359%; Ca2+ Response as a % of T360 Response (log[Ligand] -5.5): 1.5741% and 1.0900% and 0.3918% and 0.5253% and 0.2798% and 0.0720% and 0.3603% and 1.4514% and 1.2937%; Ca2+ Response as a % of T360 Response (log[Ligand] -6): 0.7619% and 0.7231% and 2.0549% and 2.7546% and 3.4553% and 0.9789% and -0.3872% and -0.5141% and 0.0396%; Ca2+ Response as a % of T360 Response (log[Ligand] -6.5): 0.0902% and 2.5170% and 0.7188% and 6.6987% and 2.2005% and 0.1478% and -0.6706% and 0.0668% and 0.2619%; Ca2+ Response as a % of T360 Response (log[Ligand] -7): 0.1653% and 1.3781% and 1.4889% and 2.9024% and 3.7196% and 2.7339% and -0.5451% and -0.2430% and 0.9384%; Ca2+ Response as a % of T360 Response (log[Ligand] -8): 0.4880% and 2.3639% and 0.4031% and 3.7453% and 1.7322% and 2.3495% and 0.5137% and 0.8889% and 1.3866%; Ca2+ Response as a % of T360 Response (log[Ligand] -9): 4.5581% and 0.9272% and 0.1871% and 0.2081% and 3.1188% and 3.6549% and 0.3770% and -0.1948% and -0.1822%
COc1ccc(C(=O)N2CCN(CCNC(=O)OC(C)(C)C)CC2)c(N2CCC(COc3cccc(C(CC(=O)O)C4CC4)c3)CC2)c1.Cl (stereo not shown) [TUG-2458]	5.38±0.09	133±5	
COc1ccc(C(=O)N2CCC(CNC(=O)OC(C)(C)C)CC2)c(N2CCC(COc3cccc(C(CC(=O)O)C4CC4)c3)CC2)c1.O=C(O)C(F)(F)F (stereo not shown) [TUG-2450]	6.18±0.09	108±7	
COc1ccc(C(=O)N2CCC(CCNC(=O)OC(C)(C)C)CC2)c(N2CCC(COc3cccc(C(CC(=O)O)C4CC4)c3)CC2)c1.O=C(O)C(F)(F)F (stereo not shown) [TUG-2451]	6.20±0.14	112±10	
